Structures are written as SMILES.

In the assay the target is T1, human orexin-2 (hOX2) receptor (Homo sapiens, UniProt O43614).
T1 construct: expressed in transfected cells
T1 sequence (O43614 1-444): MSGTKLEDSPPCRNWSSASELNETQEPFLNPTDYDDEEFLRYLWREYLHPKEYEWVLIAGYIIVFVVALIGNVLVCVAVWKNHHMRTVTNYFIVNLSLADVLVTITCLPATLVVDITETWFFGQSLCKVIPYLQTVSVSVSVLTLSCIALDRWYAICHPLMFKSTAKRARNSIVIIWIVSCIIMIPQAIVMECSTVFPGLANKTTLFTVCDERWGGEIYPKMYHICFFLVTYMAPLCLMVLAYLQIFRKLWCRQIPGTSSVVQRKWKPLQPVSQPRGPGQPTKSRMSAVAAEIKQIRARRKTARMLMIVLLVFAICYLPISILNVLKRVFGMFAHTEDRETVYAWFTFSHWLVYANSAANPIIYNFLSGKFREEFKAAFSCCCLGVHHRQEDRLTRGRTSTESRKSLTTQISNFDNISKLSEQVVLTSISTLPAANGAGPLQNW
As to the kind of experiment: Intracellular Ca2+ mobilization assay (FLIPR), antagonism of orexin-A at EC80. It is filed as cell-based. As to conditions: CHO(dHFr-) cells stably expressing hOX2; orexin-A at EC80 as agonist; antagonist applied 25 min before; Kb=IC50/(1+[A]/EC50); read-out: Kb (μM) OX2R (human). How it is done: Intracellular Ca^2+ Mobilization Assay
The Chinese Hamster Ovary (dHFr-) mutant cell line stably expressing human orexin-1 (hOX1) or human orexin-2 (hOX2) receptors were maintained in Dulbecco's Modified Eagle Medium (1×) with GlutaMax™1, 4500 mg/L D-Glucose and Sodium Pyruvate (Catalog No. 31966-021, Invitrogen, Carlsbad, Calif.), 5% dialyzed fetal calf serum (Catalog No. 26400-044), 100 μg/ml penicillin and 100 μg/ml streptomycin. The cells were seeded at 5×10^4 cells/well in the poly-D-lysine treated, 96-well, black/clear-bottomed plates (Catalog No. BD356640, BD Biosciences, Palo Alto, Calif.). 24 h later, the cells were loaded for 1 h at 37° C. with 4 μM Flou-4 acetoxymethyl ester (Catalog No. F-14202, Molecular Probes, Eugene, Oreg.) in FLIPR buffer (1×HBSS, 20 mM HEPES, 2.5 mM Probenecid). Hanks' Balanced Salt Solution (HBSS) (10×) (catalog No. 14065-049) and HEPES (1M) (catalog No. 15630-056) were purchased from Invitrogen, Carlsbad, Calif. Probenecid (250 mM) (catalog No. P8761) was from Sigma, Buchs, Switzerland. The cells were washed five times with FLIPR buffer to remove excess dye and intracellular calcium mobilization, [Ca^2+]i were measured using a Fluorometric Imaging Plate Reader (FLIPR-96, Molecular Devices, Menlo Park, Calif.) as described previously (Malherbe et al., Mol. Pharmacol., 64, 823-832, 2003). Orexin A (catalog No. 1455, Toris Cookson Ltd, Bristol, UK) was used as agonist. Orexin A ([…] stock solution in DMSO) was diluted in FLIPR buffer+0.1% BSA. The EC50 and EC80 values of orexin-A were measured daily from standard agonist concentration-response curves in CHO(dHFr-)-OX1R and -OX2R cell lines. All compounds were dissolved in 100% DMSO. Inhibition curves were determined by addition of 11 concentrations (0.0001-10 μM) of inhibitory compounds and using EC80 value of orexin-A as agonist (a concentration which gave 80% of max agonist response, determined daily). The antagonists were applied 25 min (incubation at 37° C.) before the application of the agonist. Responses were measured as peak increase in fluorescence minus basal, normalized to the maximal stimulatory effect induced by EC80 value of orexin-A or orexin-B. Inhibition curves were fitted according to the Hill equation: y=100/(1+(x/IC50)^nH), where nH=slope factor using Excel-fit 4 software (Microsoft). Kb values were calculated according to the following equation Kb=IC50/(1+[A]/EC50) where A is the concentration of agonist added which is very close to agonist EC80 value, and IC50 and EC50 values were derived from the antagonist inhibition and orexin-A or B agonist curves, respectively.
On the technique in general: Calcium assays in cells follow changes in intracellular calcium, usually with a dye or a luminescent sensor.
For orientation: Kb means the affinity of an antagonist, worked out from how it opposes an agonist. With `O=C(c1cnoc1-c1ccccc1)N1CC[C@@H](CNc2nc3cccc(F)c3o2)C1` [Example 23, {(S)-3-[(7-Fluoro-benzooxazol-2-ylamino)-methyl]-pyrrolidin-1-yl}-(5-phenyl-isoxazol-4-yl)-methanone], the Kb stood at 0.123 µM.

As to `COc1ccc(C)cc1C(=O)N1CC[C@@H](CNc2nc3ccc(Cl)cc3o2)C1` [Example 18, {(S)-3-[(6-Chloro-benzooxazol-2-ylamino)-methyl]-pyrrolidin-1-yl}-(2-methoxy-5-methyl-phenyl)-methanone], the Kb is 0.355 µM. As for `O=C(c1cnoc1-c1ccccc1)N1CC[C@@H](CNc2nc3ccc(F)cc3s2)C1` [Example 8, {(S)-3-[(6-Fluoro-benzothiazol-2-ylamino)-methyl]-pyrrolidin-1-yl}-(5-phenyl-isoxazol-4-yl)-methanone], the figure is 0.0829 µM; as for `COc1ccc(C)cc1C(=O)N1CC[C@@H](CNc2nc3ccc(F)cc3s2)C1` [Example 10, {(S)-3-[(6-Fluoro-benzothiazol-2-ylamino)-methyl]-pyrrolidin-1-yl}-(2-methoxy-5-methyl-phenyl)-methanone], 0.165 µM. Consider `COc1ccc(C)cc1C(=O)N1CC[C@@H](CNc2cnc3cc(Cl)ccc3n2)C1` [Example 32, {(S)-3-[(6-Chloro-quinoxalin-2-ylamino)-methyl]-pyrrolidin-1-yl}-(2-methoxy-5-methyl-phenyl)-methanone], for which the Kb is 0.185 µM. With `Cc1onc(-c2ccccc2)c1C(=O)N1CC[C@@H](CNc2cnc3cc(Cl)ccc3n2)C1` [Example 29, {(S)-3-[(6-Chloro-quinoxalin-2-ylamino)-methyl]-pyrrolidin-1-yl}-(5-methyl-3-phenyl-isoxazol-4-yl)-methanone], the antagonist dissociation constant (Kb) turned out to be 0.407 µM.

In the case of `COc1ccc(C)cc1C(=O)N1CC[C@@H](CNc2nc3cccc(F)c3o2)C1` [Example 25, {(S)-3-[(7-Fluoro-benzooxazol-2-ylamino)-methyl]-pyrrolidin-1-yl}-(2-methoxy-5-methyl-phenyl)-methanone], the Kb worked out at 0.675 µM.

These data come from patent US8748430B2, “Pyrrolidin-3yl-methylamine quinoxaline derivatives” (Hoffmann-La Roche Inc, priority 2008, dated 2014).
